Results on seven compounds are retold here after patent US7312212B2, “Aminopiperidine derivatives” (priority 2002, dated 2007).

The structures appear in SMILES notation.

One assay in a line: MIC of test compounds against various organisms. The assay is classed as cell-based. Conditions: versus all of these organisms (S. epidermidis CL7, S. aureus WCUH29, S. pneumoniae 1629, S. pyogenes CN10, H. influenzae ATCC49247, E. faecalis 2, E. faecium 8, M. catarrhalis Ravisio, E. coli 7623). The source says: The MIC (μg/ml) of test compounds against various organisms may be determined:
S. epidermidis CL7, S. aureus WCUH29, S. pneumoniae 1629, S. pyogenes CN10, H. influenzae ATCC49247, E. faecalis 2, E. faecium 8, M. catarrhalis Ravisio, E. coli 7623.
Turning to `COc1ccc2nccc([C@@H](O)CN3CCC(NCc4ccc5c(n4)NC(=O)CS5)C(F)C3)c2c1` (single isomer, unassigned) [Example 6], the MIC was at most 2 µg/mL.

Turning to `COc1ccc2nccc([C@@H](O)CN3CCC(NCc4ccc5c(n4)NC(=O)CO5)C(F)C3)c2c1` (single isomer, unassigned) [Example 10], the MIC was at most 2 µg/mL.

As to `COc1ccc2nccc([C@@H](O)CN3CCC(NCc4ccc5c(n4)NC(=O)CO5)C(F)C3)c2n1` (single isomer, unassigned) [Example 20], the MIC is at most 2 µg/mL. For the compound `COc1ccc2nccc([C@@H](O)CN3CCC(NCc4nc5c(cc4Cl)OCC(=O)N5)C(F)C3)c2n1` (single isomer, unassigned) [Example 24], the MIC is at most 2 µg/mL. Consider `COc1cc(F)c2nccc([C@@H](O)CN3CCC(NCc4ccc5c(n4)NC(=O)CO5)C(F)C3)c2c1` (single isomer, unassigned) [Example 26], for which the MIC is at most 2 µg/mL.

As to `COc1cc(F)c2nccc([C@@H](O)CN3CCC(NCc4ccc5c(n4)NC(=O)CS5)C(F)C3)c2c1` (single isomer, unassigned) [Example 27], the MIC is at most 2 µg/mL.

Still in this assay, the particulars now being: versus some of these organisms (panel of b704; which ones not stated).
In the case of `COc1ccc2nccc([C@@H](O)CN3CC[C@@H](NCc4ccc5c(n4)NC(=O)CS5)C[C@H]3C(F)(F)F)c2n1` [Example 37], the MIC is at most 16 µg/mL.
